Measured values reported in PubChem BioAssay AID248 (DTP/NCI, 2004).
Several values for one entry are separate records, joined by “and”; a condition that tells them apart may be missing. Equal entries are not always repeated. Inconclusive results and toxic doses are left out. No stated cut-off is given here; in the data, active means T/C of 150% or more; inactive means T/C below 125%.

Test system: L1210 leukemia ip in BDF1 mice, survival T/C
Experiment: NCI In Vivo Anticancer Drug Screen. Data for tumor model L1210 Leukemia (intraperitoneal) in B6D2F1 (BDF1) mice
Conditions: endpoint: mean survival time, higher = longer survival
How it was run: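 Tumor was transplanted into mice, which were then dosed with test compound or vehicle alone. Survival was recorded for each group, and the treated figure was expressed relative to the control figure.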

[1] = dose: 100.0 mg/kg/injection, schedule: Q01DX009 (ip), vehicle: Klucel (hydroxypropylcellulose) (HPC)
[2] = dose: 200.0 mg/kg/injection, schedule: Q01DX009 (ip), vehicle: Klucel (hydroxypropylcellulose) (HPC)
[3] = dose: 400.0 mg/kg/injection, schedule: Q01DX009 (ip), vehicle: Klucel (hydroxypropylcellulose) (HPC)
[4] = dose: 12.5 mg/kg/injection, schedule: Q01DX009 (ip), vehicle: saline
[5] = dose: 25.0 mg/kg/injection, schedule: Q01DX009 (ip), vehicle: saline
[6] = dose: 50.0 mg/kg/injection, schedule: Q01DX009 (ip), vehicle: saline
[7] = dose: 50.0 mg/kg/injection, schedule: Q04DX003 (ip), vehicle: saline with Tween-80
[8] = dose: 100.0 mg/kg/injection, schedule: Q01DX009 (ip), vehicle: saline
[9] = dose: 100.0 mg/kg/injection, schedule: Q04DX003 (ip), vehicle: saline with Tween-80
[10] = dose: 100.0 mg/kg/injection, schedule: Q04DX003 (ip), vehicle: Klucel (hydroxypropylcellulose) (HPC)
[11] = dose: 200.0 mg/kg/injection, schedule: Q04DX003 (ip), vehicle: Klucel (hydroxypropylcellulose) (HPC)
[12] = dose: 400.0 mg/kg/injection, schedule: Q04DX003 (ip), vehicle: Klucel (hydroxypropylcellulose) (HPC)
[13] = dose: 100.0 mg/kg/injection, schedule: Q04DX002 (ip), vehicle: Klucel (hydroxypropylcellulose) (HPC)
[14] = dose: 100.0 mg/kg/injection, schedule: Q01DX001 (ip), vehicle: saline
[15] = dose: 200.0 mg/kg/injection, schedule: Q01DX001 (ip), vehicle: saline
[16] = dose: 400.0 mg/kg/injection, schedule: Q01DX001 (ip), vehicle: saline
[17] = dose: 200.0 mg/kg/injection, schedule: Q04DX003 (ip), vehicle: saline with Tween-80
[18] = dose: 400.0 mg/kg/injection, schedule: Q04DX003 (ip), vehicle: saline with Tween-80
[19] = dose: 25.0 mg/kg/injection, schedule: Q04DX002 (ip), vehicle: Klucel (hydroxypropylcellulose) (HPC)
[20] = dose: 50.0 mg/kg/injection, schedule: Q04DX002 (ip), vehicle: Klucel (hydroxypropylcellulose) (HPC)
[21] = dose: 100.0 mg/kg/injection, schedule: Q04DX003 (ip), vehicle: saline
[22] = dose: 200.0 mg/kg/injection, schedule: Q04DX003 (ip), vehicle: saline

Measured: T/C

CCOc1ccc(/C=N/NC(=O)Cc2cccc3ccccc23)cc1OC
inactive: [1] 95 % of control | [2] 98 % of control | [3] 97 % of control

O=P(O)(O)O
inactive: dose: 75.0 mg/kg/injection, schedule: Q04DX003 (ip), vehicle: saline 93 % of control | dose: 150.0 mg/kg/injection, schedule: Q04DX003 (ip), vehicle: saline 98 % of control | dose: 300.0 mg/kg/injection, schedule: Q04DX003 (ip), vehicle: saline 103 % of control

CC1CC(C)(C)N=C(C(C)C)O1 (configuration not stated)
inactive: [4] 100 % of control | [5] 102 % of control | [6] 98 % of control | [7] 95 % of control | [8] 110 % of control | [9] 93 % of control

O=C(Nc1cccc(C(F)(F)F)c1)N(Cc1ccccc1)c1ccccc1
inactive: [1] 109 % of control | [2] 95 % of control | [3] 96 % of control

O=C(COc1ccccc1)Oc1c(Cl)cc(Cl)cc1Cl
inactive: [10] 98 % of control | [11] 100 % of control | [12] 100 % of control

O=C(/C=C/C(=O)Oc1ccccc1)Oc1ccccc1
inactive: [1] 88 % of control | [10] 107 % of control | [2] 91 % of control | [11] 107 % of control | [3] 98 % of control | [12] 98 % of control

CCCCCCCCCCCC[n+]1cccc(C)c1
inactive: dose: 5.0 mg/kg/injection, schedule: Q01DX001 (ip), vehicle: saline 94 % of control

O=C(O)c1cccc(I)c1.[Ni]
inactive: dose: 25.0 mg/kg/injection, schedule: Q04DX002 (ip), vehicle: gum acacia 100 % of control | dose: 50.0 mg/kg/injection, schedule: Q04DX002 (ip), vehicle: gum acacia 94 % of control

CC1(C)OCC(C(NC(=O)c2ccccc2)C(OC(=O)c2ccccc2)C2COC(C)(C)O2)O1 (configuration not stated)
inactive: [13] 90 % of control | dose: 200.0 mg/kg/injection, schedule: Q04DX002 (ip), vehicle: Klucel (hydroxypropylcellulose) (HPC) 90 % of control | dose: 400.0 mg/kg/injection, schedule: Q04DX002 (ip), vehicle: Klucel (hydroxypropylcellulose) (HPC) 90 % of control

S=P(NCCSCc1ccccc1)(N1CC1)N1CC1
inactive: dose: 6.5 mg/kg/injection, schedule: Q01DX011 (ip), vehicle: carboxymethylcellulose (CMC) 98 % of control | dose: 13.0 mg/kg/injection, schedule: Q01DX011 (ip), vehicle: carboxymethylcellulose (CMC) 102 % of control | dose: 26.0 mg/kg/injection, schedule: Q01DX011 (ip), vehicle: carboxymethylcellulose (CMC) 110 % of control | dose: 200.0 mg/kg/injection, schedule: Q01DX015 (ip), vehicle: carboxymethylcellulose (CMC) 106 % of control

Clc1ccccc1C(c1ccc(I)cc1)C(Cl)Cl (configuration not stated)
inactive: [14] 101 % of control | [15] 93 % of control | [16] 104 % of control

C/C=C/CCC(C)=O
inactive: [9] 99 % of control | [17] 100 % of control | [18] 108 % of control

N#CCc1ccc(Cl)cc1Cl
inactive: dose: 12.5 mg/kg/injection, schedule: Q04DX002 (ip), vehicle: Klucel (hydroxypropylcellulose) (HPC) 97 % of control | [19] 91 % of control | [20] 87 % of control

O=C(O)C(Cl)(c1ccccc1)c1ccccc1
inactive: dose: 75.0 mg/kg/injection, schedule: Q01DX001 (ip), vehicle: other 94 % of control | dose: 150.0 mg/kg/injection, schedule: Q01DX001 (ip), vehicle: other 101 % of control | dose: 300.0 mg/kg/injection, schedule: Q01DX001 (ip), vehicle: other 100 % of control

CCNC(C)(C)C(Cl)c1cccs1 (configuration not stated)
inactive: [8] 101 % of control | [21] 96 % of control | dose: 200.0 mg/kg/injection, schedule: Q01DX009 (ip), vehicle: saline 100 % of control | [22] 93 % of control

O=[N+]([O-])c1cc([N+](=O)[O-])c(NN(c2ccccc2)c2ccccc2)c([N+](=O)[O-])c1
inactive: dose: 12.5 mg/kg/injection, schedule: Q01DX Z (ip), vehicle: other 106 % of control | dose: 25.0 mg/kg/injection, schedule: Q01DX Z (ip), vehicle: other 102 % of control | [10] 92 % of control | [11] 88 % of control | [12] 91 % of control

Nc1ccc(C(=O)Nc2ccc(N(CCCl)CCCl)cc2)cc1
inactive: [4] 117 % of control | [5] 98 % of control and 114 % of control | [6] 120 % of control | dose: 50.0 mg/kg/injection, schedule: Q04DX003 (ip), vehicle: saline 115 % of control | [8] 114 % of control | [21] 118 % of control | [22] 97 % of control

CC1(C)CCC2CCCCC2O1 (configuration not stated)
inactive: [14] 102 % of control | [15] 98 % of control | [16] 96 % of control

C=CCNC(=S)Nc1ccccc1C=O
inactive: [19] 100 % of control | [20] 106 % of control | [13] 110 % of control and 90 % of control

CC(C)=NNC(=O)Nc1cccc(C)c1C
inactive: [1] 90 % of control | [2] 91 % of control

N#Cc1ccc(-c2ccc(C#N)cc2Br)c(Br)c1
inactive: [1] 93 % of control | [10] 94 % of control | [2] 93 % of control | [11] 95 % of control | [3] 88 % of control | [12] 96 % of control

Cc1ccc(SNc2ccccc2)cc1
inactive: [9] 92 % of control | [17] 100 % of control

Cc1nnn(N/N=C(\C(=O)Oc2ccccc2)c2ccccc2)c1C
inactive: [10] 100 % of control | [11] 103 % of control | [12] 96 % of control

O=[N+]([O-])c1ccc(N=C/C=C/c2ccccc2)cc1
inactive: dose: 100.0 mg/kg/injection, schedule: Q01DX009 (ip), vehicle: saline with Tween-80 88 % of control | dose: 200.0 mg/kg/injection, schedule: Q01DX009 (ip), vehicle: saline with Tween-80 94 % of control | dose: 400.0 mg/kg/injection, schedule: Q01DX009 (ip), vehicle: saline with Tween-80 104 % of control

CN1CCN(C(=O)c2ccc(C(=O)N3CCN(C)CC3)cc2)CC1
inactive: dose: 15.0 mg/kg/injection, schedule: Q01DX Z (ip), vehicle: saline 94 % of control | dose: 30.0 mg/kg/injection, schedule: Q01DX Z (ip), vehicle: saline 94 % of control | dose: 60.0 mg/kg/injection, schedule: Q01DX Z (ip), vehicle: saline 108 % of control | dose: 120.0 mg/kg/injection, schedule: Q01DX Z (ip), vehicle: saline 102 % of control | dose: 125.0 mg/kg/injection, schedule: Q01DX Z (ip), vehicle: carboxymethylcellulose (CMC) 96 % of control | dose: 250.0 mg/kg/injection, schedule: Q01DX Z (ip), vehicle: carboxymethylcellulose (CMC) 102 % of control | dose: 500.0 mg/kg/injection, schedule: Q01DX Z (ip), vehicle: carboxymethylcellulose (CMC) 90 % of control

Oc1ccccc1C=NC1CCCCC1.Oc1ccccc1C=NC1CCCCC1.[Co+2]
inactive: [10] 100 % of control | [11] 100 % of control

CC(NC(=O)OCc1ccccc1)C(=O)NC(Cc1ccc(O)cc1)C(=O)OCc1ccccc1 (configuration not stated)
inactive: [9] 97 % of control | [17] 90 % of control | [18] 93 % of control

OC(c1ccc(F)cc1)(c1ccc(F)cc1)C1CC1
inactive: dose: 100.0 mg/kg/injection, schedule: Q01DX001 (ip), vehicle: saline with Tween-80 106 % of control | dose: 200.0 mg/kg/injection, schedule: Q01DX001 (ip), vehicle: saline with Tween-80 105 % of control

Cn1nnc(N/N=C/c2ccccc2)n1
inactive: dose: 6.25 mg/kg/injection, schedule: Q04DX003 (ip), vehicle: saline with Tween-80 100 % of control | dose: 12.5 mg/kg/injection, schedule: Q04DX003 (ip), vehicle: saline with Tween-80 107 % of control | dose: 25.0 mg/kg/injection, schedule: Q01DX009 (ip), vehicle: saline with Tween-80 94 % of control | dose: 25.0 mg/kg/injection, schedule: Q04DX003 (ip), vehicle: saline with Tween-80 94 % of control and 109 % of control | [7] 95 % of control | [9] 88 % of control

O=C(NC(CO)CCCO)c1ccc([N+](=O)[O-])cc1 (configuration not stated)
inactive: [10] 108 % of control | [11] 86 % of control | [12] 96 % of control
